Results on three compounds are retold here after patent US7375215B2, “Compounds for PDT” (Bioscience Technology Investment Holdings Limited, priority 2000, dated 2008).

The subject of one data set is Balb/c mice. The data set can be described thus: Cutaneous photosensitivity (ear thickness after xenon light irradiation). Particulars: 0.88 μmol kg^−1, 40 Joules per cm^2 xenon light. The class given is in vivo. As to the method:
Cutaneous photosensitivity was determined in adult female Balb/c mice, held under standard conditions and allowed access to food and water ad libitum. […] Each mouse was weighed immediately before injection and the injected volume adjusted to give the correct dose.
At 24 or 72 hours after photosensitiser injection one ear of each mouse was irradiated with full-spectrum xenon light from a 1 KW clinical photo-irradiator (Model UV-90, Applied Photophysics, London). The light was delivered to the ear using a 7 mm diameter light guide (Serial SU3) placed lightly against the ear. The light dose given was 40 Joules per cm^2, which was achieved by exposing the ear for 63 seconds to 245 mW of light from the light guide having a contact area of 0.384 cm^2. The light guide filtered infra-red and ultra-violet light, so as to minimise heating of the ear and damage resulting from ultra-violet light irradiation.
Animals treated with light at the 24 or 72 hour drug-light intervals were killed at 48 or 24 hours respectively after irradiation of the ears. The oedema of the irradiated and control ears was assessed by measuring ear thickness. The thickness of the ear was measured at three sites on the upper third of the ear using a fixed-force micrometer with a vernier-interpolated resolution of 2 μm and an accuracy of 10 μm (Neill instruments).

For data set [1] the following is noted: usual clinical dose of 0.15 mg kg^−1; cited from earlier work.
The next data set is described as follows: Solubility in water. The class given is physicochemical.
Data set [2] has as its system Colo26 mouse colorectal tumour cells. The data set can be described thus: Uptake by Colo26 tumour cells in culture. The class given is cell-based. Particulars: 1.5 μM; for 6 hour uptake (millions of molecules per cell) / 24 hour uptake (millions of molecules per cell) / Rate of uptake 6-24 h (thousands of molecules per cell per hour): Colo26 cells. As to the method: Colo26 mouse colorectal tumour cells were grown in culture using standard methods. […] At the end of the set time period, the culture medium containing the added photosensitiser was removed and the cells washed with cold phosphate buffered saline. The cells were freed from the culture flask by treatment with trypsin solution. The viable cell count was determined using a standard haemocytometer and the photosensitiser extracted from the cells by treatment with methanol:DMSO (4:1, v:v). Cell extracts were frozen in liquid nitrogen and stored at −70° C. for later analysis. The photosensitiser content of the cell extract was determined by direct fluorescence using standard curves of photosensitiser and correcting for extraction efficiency from the cell suspension. […] (millions of molecules per cell, m against time t (hours)). […] The uptake of m-THPC is rapid, reaching a peak around 24 hours after which the photosensitiser content of the cells declines. […] However, the amount of photosensitiser taken up is greater. […] The mechanism of photosensitiser uptake by cells remains a subject of study. In the case of small hydrophobic sensitisers such as m-THPC, which are generally presented to cells bound to protein or lipoprotein in biological systems, a role for specific lipoprotein receptors has been implicated. […] One way in which uptake mechanisms may be studied is by determining the influence of temperature. In general, active (energy-dependent) uptake processes are inhibited in cells maintained at 4° C. compared to those at 37° C. Passive (energy-independent) uptake processes are much less temperature-dependent.

The nature of data set [3]: Spectroscopic properties (absorbance, fluorescence). The class given is physicochemical. Particulars: for Fluorescence in aqueous solution relative to ethanol: excited at 405 nm, indicates aggregation in water; for Molar extinction coefficient at the red peak: red absorption peak.
The subject of data set [4] is syngeneic colo26 tumour implanted subcutaneously. The data set can be described thus: Tumour PDT activity (tumour necrosis) in mouse implanted colorectal tumour model.
From the text: Information on the tumour PDT activity have been obtained in the aforementioned mouse model bearing the syngeneic colo26 tumour implanted subcutaneously at the top of the left hind leg (approximately 1 cm lateral to the spine). The tumours were used after 12 to 16 days when they had reached an average diameter of 8 to 10 mm. For drug injection and irradiation animals were sedated with Hypnorm diluted in water (1:3).
Data set [5] can be described thus: Plasma and tissue photosensitiser concentrations in tumour-bearing mice. As to the method: Adult female Balb/c mice bearing the syngeneic colo26 tumour implanted subcutaneously were produced using methods previously described (Ansell et al. Lasers in Medical Science 1997, 12, 336-41). Groups of mice of weight 19-22 g were given the photosensitisers at a dose of 0.88 μmol kg^−1 (equivalent to 0.6 mg kg^−1 in the case of m-THPC) by injection into the tail vein. The solutions for injection of each compound were prepared at a concentration of 0.352 μmol ml^−1 so that a typical 20 g mouse would be injected with a volume of 50 μl.
Animals were sacrificed at 6, 24, 72 and 192 hours after injection of each photosensitiser. Immediately after sacrifice, blood was obtained by cardiac puncture, and centrifuged at 13,000×g for three minutes. The resulting supernatant (blood plasma) was aspirated and stored at −70° C. for subsequent analysis. The photosensitiser content of each sample was measured from the fluorescence of an extract obtained using methanol:DMSO (3:5, v:v). A 50 μl portion of each extract was transferred to a disposable fluorescence cuvette and the fluorescence determined using an excitation wavelength of 418 nm and emission wavelength of 650 nm with an eight second response setting. The assay was calibrated using stock solutions of each compound in methanol, further diluted in methanol:water (1:1, v/v) and extracted with methanol:DMSO as described above. […] The measurement protocol was designed to dilute each sample to a sufficient extent to avoid interference by endogenous chromophores (absorbance of samples <<0.1 at the excitation wavelength).
The selectivity for tumour specific tissue distribution was also evaluated in this work. Tissue selectivity was evaluated as the tumour:muscle concentration ratio over the duration of the observation period (4-192 hours post-administration). This ratio provided a direct measure of the normal tissue to tumour tissue differential in concentrations and allows selection of an optimal treatment time for PDT that minimises the potential to cause collateral damage of normal tissues.

The next data set relates to tumour and muscle. Particulars: cited from earlier work.
Data set [6] concerns syngeneic colo26 tumour implanted subcutaneously. Particulars: 4.4 μmol kg^−1; drug-light interval 72 hours; light 652 nm; cited from earlier work.
Setting [7] is: 0.88 μmol kg^−1 i.v., 6-192 hours.

With `Oc1cccc(-c2c3nc(c(-c4cccc(O)c4)c4ccc([nH]4)c(-c4cccc(O)c4)c4nc(c(-c5cccc(O)c5)c5ccc2[nH]5)CC4)C=C3)c1` [m-THPC, 7,8-dihydro-5,10,15,20-tetrakis(3-hydroxyphenyl)porphyrin], the “Differences in ear thickness (irradiated-control), Mean” value (shortened to “Differences in ear thickness”) in the data set with Balb/c mice (24 h drug-light interval) is recorded as 41 μm. In addition, in the data set on Balb/c mice (72 h drug-light interval), the “Differences in ear thickness” value is on record as 2 μm. Also, the “Duration of skin sensitivity” value in data set [1] is given as 2-3 weeks. Also, the Solubility in water entry in the data set “Solubility in water” (water) is recorded as “insoluble”. The Solubility in water entry in the data set “Solubility in water” (water / aqueous solvents) is “insoluble in aqueous solvents”. Besides, the “Inhibition of uptake at 4° C., factor” value in [2] (4° C. versus 37° C.) was “over 250”. Moreover, in [2] (4° C.), the “6 hour uptake (millions of molecules per cell)” value is 0.82 millions of molecules per cell, the “24 hour uptake (millions of molecules per cell)” value is reported as 1.33 millions of molecules per cell and the “Rate of uptake 6-24 h (thousands of molecules per cell per hour)” value is given as 28 thousands of molecules per cel. Also, in [2] (37° C.), the “Time of peak uptake by tumour cells” value was “around 24 hours”, the “6 hour uptake (millions of molecules per cell)” value is given as 79.2 millions of molecules per cell, the “24 hour uptake (millions of molecules per cell)” value was 208 millions of molecules per cell and the “Rate of uptake 6-24 h (thousands of molecules per cell per hour)” value was 7184 thousands of molecules per cel. Besides, in data set [3], the “Fluorescence in aqueous solution relative to ethanol” value is on record as “severely quenched” and the “Molar extinction coefficient at the red peak” value was ~30,000 L mol^−1 cm^−1.
As to “tetrakis (6′-(methoxy PEG 2000 carbamate)1′-isocyanate hexamethylene) derivative of 7,8dihydro-5,10,15,20-tetrakis(3-hydroxyphenyl)porphyrin [SPC 0172]”, the “Differences in ear thickness” value with Balb/c mice (24 h drug-light interval) stood at 2 μm. In the data set on Balb/c mice (72 h drug-light interval), the “Differences in ear thickness” value came out at 0 μm. In addition, the “Uptake on cooling as share of that at 37° C.” value in data set [2] (4° C. versus 37° C.) was “about 75%”. In addition, in data set [2] (4° C.), the “6 hour uptake (millions of molecules per cell)” value is given as 1.08 millions of molecules per cell, the “24 hour uptake (millions of molecules per cell)” value is given as 1.78 millions of molecules per cell and the “Rate of uptake 6-24 h (thousands of molecules per cell per hour)” value is reported as 39 thousands of molecules per cel. In data set [2] (37° C.), the “6 hour uptake (millions of molecules per cell)” value is listed as 1.12 millions of molecules per cell, the “24 hour uptake (millions of molecules per cell)” value is listed as 2.08 millions of molecules per cell and the “Rate of uptake 6-24 h (thousands of molecules per cell per hour)” value is 53 thousands of molecules per cel. In [2] (after 72 hours of incubation, 37° C.), the “Cell photosensitiser content, times as much as SPC 0038B” value is “about 5”. Also, in [4] (Balb/c mice bearing colo26), the “PDT activity compared with m-THPC” value was “same PDT activity as m-THPC” and the “Time of maximum photodynamic effect in tumour” value is reported as 2 days. Also, the “Damage of surrounding skin and underlying muscle at treated sites” value in data set [4] (particularly at the two day drug-light interval) is “only limited damage of the surrounding skin and underlying muscle”. Moreover, in data set [4] (same dose (1.76 μmol kg^−1), light dose 20 J cm^−2, all drug-light intervals up to 72 hours), the “Tumour damage at a range of drug-light intervals” value is recorded as “Full thickness tumour damage”. Moreover, in data set [5] (setting [7]), the Liver photosensitiser levels entry is “lower and eliminated more quickly”; the Plasma concentration-time profile result was “lower absolute levels and more rapid elimination”; the Skin photosensitiser concentrations result is recorded as “low throughout the 6-192 hour measurement period”. Moreover, the “Tumour:muscle concentration ratio” value in data set [5] (72 hours post-administration, 0.88 μmol kg^−1 i.v.) was “about 7.5”. Further, in data set [5] (post-administration, 0.88 μmol kg^−1 i.v.), the “Time of optimal tumour:muscle concentration ratio” value came to 72 h. For the same compound, in data set [3], the “Fluorescence in aqueous solution relative to ethanol” value was 36% and the “Molar extinction coefficient at the red peak” value is listed as ~22,000 L mol^−1 cm^−1.
In the case of “tetrakis (ω-methoxypolyethylene glycol [MW=2000] triazine of 7,8-dihydro-5,10,15,20-tetrakis(3-hydroxyphenyl)porphyrin [SPC 0038B]”, in the data set with Balb/c mice (24 h drug-light interval), the “Differences in ear thickness” value is 25 μm. For the same compound, the “Differences in ear thickness” value in the data set on Balb/c mice (72 h drug-light interval) stood at 4 μm. In the data set on tumour and muscle (after drug administration, mouse model), the “Time for which tumour retained maximum sensitivity to light” value is on record as “at least 15 days”. In the data set on tumour and muscle (after injection), the “Time of peak concentration in muscle” value is not above 72 h. Moreover, in the data set on tumour and muscle (three days after administration, mouse model), the Muscle photosensitivity entry is “no longer photosensitive”. The “PDT treatment times with sustained PDT tumour necrosis” value in the data set with tumour and muscle (tumour bioactivity) was 4 to 15 days. The “Uptake in the cold compared with 37° C.” value in data set [2] (4° C. versus 37° C.) was “twice as great in the cold than at 37 °C”. In [2] (4° C.), the “6 hour uptake (millions of molecules per cell)” value is recorded as 0.56 millions of molecules per cell, the “24 hour uptake (millions of molecules per cell)” value was 0.64 millions of molecules per cell and the “Rate of uptake 6-24 h (thousands of molecules per cell per hour)” value is on record as 4 thousands of molecules per cel. In addition, in [2] (37° C.), the “6 hour uptake (millions of molecules per cell)” value was 0.82 millions of molecules per cell, the “24 hour uptake (millions of molecules per cell)” value is 0.86 millions of molecules per cell and the “Rate of uptake 6-24 h (thousands of molecules per cell per hour)” value is recorded as 2 thousands of molecules per cel. In data set [2] (after 72 hours incubation, 37° C.), the “Cell photosensitiser content, factor less than that of m-THPC” value was approximately 100. The “Biological effect (mm of tumour necrosis)” value in data set [6] was 3.3 ± 0.7 ^1 mm. The “Fold less potency in comparison to SPC 0172 and m-THPC” value in [4] (optimal drug-light interval of 72 hours, dose level and degree of tumour necrosis basis) is on record as 10-20 fold. Besides, in data set [5] (mouse, in vivo), the “Excretion from the liver” value is listed as “more slowly than m-THPC”. The “Fluorescence in aqueous solution relative to ethanol” value in data set [3] is recorded as 47%.
